According to patent US20230081426A1, “COMPOUNDS AND METHODS FOR KRAS MODULATION AND INDICATIONS THEREFOR” (Plexxikon Inc., priority 2020, published 2023):

Target: T1, G12D-mutant human KRAS (amino acid residues 1-188) (Homo sapiens, UniProt P01116, G12D)
T1 construct: G12D or G12C-mutant human KRAS (amino acid residues 1-188) with FLAG tag; made in house; host or cells: E. coli
Experiment: KRAS Binding Disruption Assay (AlphaScreen; biotinylated KRpep-2d analogue or RAF1-RBD), G12D
Details: KRAS G12D; geometric mean; read-out: KRAS GMean IC50 (uM) MUTATION: G12D
Method: Compound binding disrupts the interaction of KRpep-2d or RAF1-RBD with KRAS, leading to a decrease in Alpha signal.
All assay components were prepared in 20 mM HEPES (pH 7.5), 100 mM NaCl, 5 mM MgCl2, 0.01% Tween-20, and 0.01% BSA. Biotinylated analogues of KRpep-2d were custom synthesized. The binding disruption assays were performed using 5-20 nM of mutant KRAS and 5-20 nM of either biotinylated KRpep-2d analogue or RAF1-RBD. 19 μL of KRAS protein and 4 μL of biotinylated KRpep-2d or RAF1-RBD were added to the wells of a 384-well plate containing 1 μL of various concentrations of test compound or DMSO vehicle. 16 wells containing KRAS, biotinylated KRpep-2d or RAF1-RBD, and 5% DMSO served as high controls. 16 wells containing KRAS only and 5% DMSO served as low controls. Binding reactions were incubated for 1 hour at 25° C., then Anti-Flag Acceptor and Streptavidin Donor Alpha beads were added at a final concentration of 10 μg/mL for an additional hour at room temperature. Alpha signal was read out on a Perkin Elmer Envision HTS instrument. The percentage inhibition at individual compound concentrations relative to high and low controls was calculated. The data were analyzed by using nonlinear regression to generate IC50 values.

T1 sequence (P01116 1-188 isoform P01116-2 G12D): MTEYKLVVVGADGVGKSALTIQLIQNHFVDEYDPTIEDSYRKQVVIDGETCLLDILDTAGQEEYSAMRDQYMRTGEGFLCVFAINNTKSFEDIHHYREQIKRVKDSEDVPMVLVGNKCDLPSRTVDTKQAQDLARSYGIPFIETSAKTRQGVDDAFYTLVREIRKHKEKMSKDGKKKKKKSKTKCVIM

Row | IC50 [µM] | SMILES
1 | 0.0001 to 10 | OCc1cccc2[nH]cc(-c3ccc4c(N5C[C@H]6CC[C@@H](C5)N6)nc(OCC56CCCN5CCC6)nc4c3F)c12 [P-0574, (3-(4-((1R,5S)-3,8-diazabicyclo[3.2.1]octan-3-yl)-8-fluoro-2-((tetrahydro-1H-pyrrolizin-7a(5H)-yl)methoxy)quinazolin-7-yl)-1H-indol-4-yl)methanol]
2 | 0.0001 to 10 | Nc1ccc(F)c(-c2c(F)cc3c(N4C[C@H]5CC[C@@H](C4)N5)nc(OCC45CCCN4CCC5)nc3c2F)c1 [P-0608, 3-(4-((1R,5S)-3,8-diazabicyclo[3.2.1]octan-3-yl)-6,8-difluoro-2-((tetrahydro-1H-pyrrolizin-7a(5H)-yl)methoxy)quinazolin-7-yl)-4-fluoroaniline]
3 | 0.0001 to 10 | OCC1(CNc2nc(N3C[C@H]4CC[C@@H](C3)N4)c3ccc(-c4cc(O)cc5ccccc45)c(F)c3n2)CC(F)(F)C1 [P-0579, 4-(4-((1R,5S)-3,8-diazabicyclo[3.2.1]octan-3-yl)-2-(((3,3-difluoro-1-(hydroxymethyl)cyclobutyl)methyl)amino)-8-fluoroquinazolin-7-yl)naphthalen-2-ol]
4 | 0.0001 to 10 | Fc1c(-c2cccc3cccc(Br)c23)ccc2c(N3C[C@H]4CC[C@@H](C3)N4)nc(OCC34CCCN3CCC4)nc12 [P-0571, 4-((1R,5S)-3,8-diazabicyclo[3.2.1]octan-3-yl)-7-(8-bromonaphthalen-1-yl)-8-fluoro-2-((tetrahydro-1H-pyrrolizin-7a(5H)-yl)methoxy)quinazoline]
5 | 0.0001 to 10 | OCC1(CNc2nc(N3C[C@H]4CC[C@@H](C3)N4)c3ccc(-c4cc(O)cc5ccccc45)c(F)c3n2)CCC1 [P-0587, 4-(4-((1R,5S)-3,8-diazabicyclo[3.2.1]octan-3-yl)-8-fluoro-2-(((1-(hydroxymethyl)cyclobutyl)methyl)amino)quinazolin-7-yl)naphthalen-2-ol]
6 | 0.0001 to 10 | OCC1(COc2nc(N3C[C@H]4CC[C@@H](C3)N4)c3ccc(-c4cc(O)cc5ccccc45)c(F)c3n2)CC(O)C1 (stereo partly drawn) [P-0583, 4-(4-((1R,5S)-3,8-diazabicyclo[3.2.1]octan-3-yl)-8-fluoro-2-((3-hydroxy-1-(hydroxymethyl)cyclobutyl)methoxy)quinazolin-7-yl)naphthalen-2-ol]
7 | 0.0001 to 10 | OCC1(COc2nc(N3C[C@H]4CC[C@@H](C3)N4)c3ccc(-c4cc(O)cc5ccccc45)c(F)c3n2)CC2(CCC2)C1 [P-0569, 4-(4-((1R,5S)-3,8-diazabicyclo[3.2.1]octan-3-yl)-8-fluoro-2-((2-(hydroxymethyl)spiro[3.3]heptan-2-yl)methoxy)quinazolin-7-yl)naphthalen-2-ol]
8 | 0.0001 to 10 | CC(=O)NCC(C)(C)COc1nc(N2C[C@H]3CC[C@@H](C2)N3)c2ccc(-c3cc(O)cc4ccccc34)c(F)c2n1 [P-0591, N-(3-((4-((1R,5S)-3,8-diazabicyclo[3.2.1]octan-3-yl)-8-fluoro-7-(3-hydroxynaphthalen-1-yl)quinazolin-2-yl)oxy)-2,2-dimethylpropyl)acetamide]
9 | 0.0001 to 10 | OCC1(COc2nc(N3C[C@H]4CC[C@@H](C3)N4)c3ccc(-c4cc(O)cc5ccccc45)c(F)c3n2)CCCC1 [P-0588, 4-(4-((1R,5S)-3,8-diazabicyclo[3.2.1]octan-3-yl)-8-fluoro-2-((1-(hydroxymethyl)cyclopentyl)methoxy)quinazolin-7-yl)naphthalen-2-ol]

The next lines start with the compound.

Row | SMILES | IC50 [µM]
10 | Oc1cc(-c2ccc3c(N4C[C@H]5CC[C@@H](C4)N5)nc(N4CC5(CCC(O)C5)C4)nc3c2F)c2ccccc2c1 (stereo partly drawn) [P-0563, 2-(4-((1R,5S)-3,8-diazabicyclo[3.2.1]octan-3-yl)-8-fluoro-7-(3-hydroxynaphthalen-1-yl)quinazolin-2-yl)-2-azaspiro[3.4]octan-6-ol] | 0.0001 to 10
11 | COCc1cccc2[nH]cc(-c3ccc4c(N5C[C@H]6CC[C@@H](C5)N6)nc(OCC56CCCN5CCC6)nc4c3F)c12 [P-0567, 4-((1R,5S)-3,8-diazabicyclo[3.2.1]octan-3-yl)-8-fluoro-7-(4-(methoxymethyl)-1H-indol-3-yl)-2-((tetrahydro-1H-pyrrolizin-7a(5H)-yl)methoxy)quinazoline] | 0.0001 to 10
12 | Oc1cc(-c2ccc3c(N4C[C@H]5CC[C@@H](C4)N5)nc(N4CC5CCNCC5C4)nc3c2F)c2ccccc2c1 (stereo partly drawn) [P-0509, 4-(4-((1R,5S)-3,8-diazabicyclo[3.2.1]octan-3-yl)-8-fluoro-2-(octahydro-2H-pyrrolo[3,4-c]pyridin-2-yl)quinazolin-7-yl)naphthalen-2-ol] | 0.0001 to 10
13 | Nc1ccc(Cl)c(-c2c(Cl)cc3c(N4C[C@H]5CC[C@@H](C4)N5)nc(OCC45CCCN4CCC5)nc3c2F)c1 [P-0540, 3-(4-((1R,5S)-3,8-diazabicyclo[3.2.1]octan-3-yl)-6-chloro-8-fluoro-2-((tetrahydro-1H-pyrrolizin-7a(5H)-yl)methoxy)quinazolin-7-yl)-4-chloroaniline] | 0.0001 to 10
14 | C#Cc1c(F)ccc2[nH]cc(-c3ccc4c(N5C[C@H]6CC[C@@H](C5)N6)nc(OCC56CCCN5CCC6)nc4c3F)c12 [P-0515] | 0.0001 to 10
15 | NC(=O)CN1[C@@H]2CC[C@H]1CN(c1nc(OCC34CCCN3CCC4)nc3c(F)c(-c4cc(O)cc5ccccc45)ccc13)C2 [P-0550, 2-((1R,5S)-3-(8-fluoro-7-(3-hydroxynaphthalen-1-yl)-2-((tetrahydro-1H-pyrrolizin-7a(5H)-yl)methoxy)quinazolin-4-yl)-3,8-diazabicyclo[3.2.1]octan-8-yl)acetamide] | 0.0001 to 10
16 | O=C(O)CCc1cccc2[nH]cc(-c3ccc4c(N5C[C@H]6CC[C@@H](C5)N6)nc(OCC56CCCN5CCC6)nc4c3F)c12 [P-0518, 3-(3-(4-((1R,5S)-3,8-diazabicyclo[3.2.1]octan-3-yl)-8-fluoro-2-((tetrahydro-1H-pyrrolizin-7a(5H)-yl)methoxy)quinazolin-7-yl)-1H-indol-4-yl)propanoic acid] | 0.0001 to 10
17 | CC(C)(CNC(=O)CO)COc1nc(N2C[C@H]3CC[C@@H](C2)N3)c2ccc(-c3cc(O)cc4ccccc34)c(F)c2n1 [P-0537, N-(3-((4-((1R,5S)-3,8-diazabicyclo[3.2.1]octan-3-yl)-8-fluoro-7-(3-hydroxynaphthalen-1-yl)quinazolin-2-yl)oxy)-2,2-dimethylpropyl)-2-hydroxyacetamide] | 0.0001 to 10
18 | Oc1cc(-c2c(Cl)cc3c(N4C[C@H]5CC[C@@H](C4)N5)nc(OCCCN4CCC(F)(F)C4)nc3c2F)c2ccccc2c1 [P-0532, 4-(4-((1R,5S)-3,8-diazabicyclo[3.2.1]octan-3-yl)-6-chloro-2-(3-(3,3-difluoropyrrolidin-1-yl)propoxy)-8-fluoroquinazolin-7-yl)naphthalen-2-ol] | 0.0001 to 10
19 | Oc1cc(-c2nc(N3C[C@H]4CC[C@@H](C3)N4)c3ccc(-c4cc(O)cc5ccccc45)c(F)c3n2)c2ccccc2c1 [P-0562, 4,4′-(4-((1R,5S)-3,8-diazabicyclo[3.2.1]octan-3-yl)-8-fluoroquinazoline-2,7-diyl)bis(naphthalen-2-ol)] | 10 to 100
20 | Oc1cc(-c2ccc3c(N4C[C@H]5CC[C@@H](C4)N5)nc(OCC4CCCO4)nc3c2)c2ccccc2c1 (stereo partly drawn) [P-0082, 4-(4-((1R,5S)-3,8-diazabicyclo[3.2.1]octan-3-yl)-2-((tetrahydrofuran-2-yl)methoxy)quinazolin-7-yl)naphthalen-2-ol] | 0.0001 to 10
21 | CS(=O)(=O)NCCN1[C@@H]2CC[C@H]1CN(c1nc(OCC34CCCN3CCC4)nc3c(F)c(-c4cc(O)cc5ccccc45)ccc13)C2 [P-0542, N-(2-((1R,5S)-3-(8-fluoro-7-(3-hydroxynaphthalen-1-yl)-2-((tetrahydro-1H-pyrrolizin-7a(5H)-yl)methoxy)quinazolin-4-yl)-3,8-diazabicyclo[3.2.1]octan-8-yl)ethyl)methanesulfonamide] | 0.0001 to 10
22 | CN(C)C(=O)CCOc1nc(N2C[C@H]3CC[C@@H](C2)N3)c2ccc(-c3cc(O)cc4ccccc34)cc2n1 [P-0071, 3-((4-((1R,5S)-3,8-diazabicyclo[3.2.1]octan-3-yl)-7-(3-hydroxynaphthalen-1-yl)quinazolin-2-yl)oxy)-N,N-dimethylpropanamide] | 0.0001 to 10
23 | CN1CCC1COc1nc(N2C[C@H]3CC[C@@H](C2)N3)c2ccc(-c3cc(O)cc4ccccc34)cc2n1 (stereo partly drawn) [P-0086, 4-(4-((1R,5S)-3,8-diazabicyclo[3.2.1]octan-3-yl)-2-((1-methylazetidin-2-yl)methoxy)quinazolin-7-yl)naphthalen-2-ol] | 0.0001 to 10
24 | CN1CC(F)(F)C[C@H]1COc1nc(N2C[C@H]3CC[C@@H](C2)N3)c2ccc(-c3cc(O)cc4ccccc34)c(F)c2n1 [P-0553, 4-(4-((1R,5S)-3,8-diazabicyclo[3.2.1]octan-3-yl)-2-(((S)-4,4-difluoro-1-methylpyrrolidin-2-yl)methoxy)-8-fluoroquinazolin-7-yl)naphthalen-2-ol] | 0.0001 to 10
25 | CCc1cccc2c1N(c1ccc3c(N4C[C@H]5CC[C@@H](C4)N5)nc(OC[C@@H]4CCCN4C)nc3c1F)CCC2 [P-0560, 4-((1R,5S)-3,8-diazabicyclo[3.2.1]octan-3-yl)-7-(8-ethyl-3,4-dihydroquinolin-1(2H)-yl)-8-fluoro-2-(((S)-1-methylpyrrolidin-2-yl)methoxy)quinazoline] | 0.0001 to 10
